Columns and labels:
[1] = Glass transition temperature, crystallization temperature and quantity of crystallization heat (DSC); type: physicochemical; settings: for Glass transition temperature Rating / Glass transition temperature / Crystallization temperature: DSC; for Glass transition temperature: 20° C./min, nitrogen gas flow; for Glass transition temperature-Crystallization temperature: rating of the difference; for Crystallization temperature: exothermic peak
Method: A sample (about 10 mg) placed in a non-sealed aluminum container was heated to a temperature higher than the melting point at a temperature rising rate of 20° C./min in a nitrogen gas flow (50 ml/min). After being rapidly cooled, the sample was again heated to a temperature higher than the melting point at a temperature rising rate of 20° C./min in a nitrogen gas flow (30 ml/min). After being rapidly cooled, the sample was again heated to 400° C. at a temperature rising rate of 20° C./min in a nitrogen gas flow (30 ml/min), to conduct a differential scanning calorimetric analysis using DSC/TA-50WS manufactured by Shimadzu Corporation. The middle point of the region at which the base line turned discontinuous (the point at which the specific heat reduced to half) was taken as the glass transition temperature (Tg) and the temperature of the exothermic peak after the discontinuous region was taken as the crystallization temperature. The quantity of crystallization heat was determined by the area of the region which was surrounded by the exothermic peak and the base line. The sample was rated A when meeting Tg≧130° C., and rated C when meeting Tg≦130° C. Also, the sample was rated A when meeting (glass transition temperature)−(crystallization temperature)≧70° C., and rated C when meeting (glass transition temperature)-(crystallization temperature)<70° C.

[2] = Solubility in safety solvent; type: physicochemical; settings: 23° C.; PGMEA, PGME, ethyl lactate, butyl acetate, methyl 3-methoxypropionate, ethyl propionate
Method: The solubility of the compound B was tested at 23° C. using propylene glycol monomethyl ether acetate, propylene glycol monomethyl ether, ethyl lactate, butyl acetate, methyl 3-methoxypropionate and ethyl propionate. The sample was rated A when dissolved in any one of the above solvents in a concentration of 5 wt % or more, rated B when dissolved in a concentration of 0.1 to 5 wt %, and rated C when dissolved only in a concentration of less than 0.1 wt %.

| Glass transition temperature Rating [1] | Glass transition temperature [1] | SMILES | Glass transition temperature-Crystallization temperature [1] | Crystallization temperature [1] | Solubility to safety solvent [2] |
| --- | --- | --- | --- | --- | --- |
| A (rated A when meeting Tg≧130° C.) | 144 °C | Cc1cc(C(c2ccc3cc(C(c4cc(C)c(O)cc4C)c4cc(C)c(O)cc4C)ccc3c2)c2cc(C)c(O)cc2C)c(C)cc1O [Compound 101, tetrakis(2,5-xylenol)-2,6-naphthalenedialdehyde] | A (rated A when meeting (glass transition temperature)−(crystallization temperature)≧70° C.) |  |  |
| A (rated A when meeting Tg≧130° C.) | 136 °C | Cc1cc(C(c2ccc3cc(C(c4cc(C)c(O)c(C)c4C)c4cc(C)c(O)c(C)c4C)ccc3c2)c2cc(C)c(O)c(C)c2C)c(C)c(C)c1O [Compound 102] | A (rated A when meeting (glass transition temperature)−(crystallization temperature)≧70° C.) |  |  |
| A (rated A when meeting Tg≧130° C.) | 145 °C | Cc1cc(C(c2ccc3ccc(C(c4cc(C)c(O)cc4C)c4cc(C)c(O)cc4C)cc3c2)c2cc(C)c(O)cc2C)c(C)cc1O [Compound 104] | A (rated A when meeting (glass transition temperature)−(crystallization temperature)≧70° C.) | 287 °C |  |
| A (rated A when meeting Tg≧130° C.) | 137 °C | Cc1cc(C(c2ccc(-c3cccc(-c4ccc(C(c5cc(C)c(O)cc5C)c5cc(C)c(O)cc5C)cc4)c3)cc2)c2cc(C)c(O)cc2C)c(C)cc1O [Compound 106] | A (rated A when meeting (glass transition temperature)−(crystallization temperature)≧70° C.) |  |  |
| A (rated A when meeting Tg≧130° C.) | 147 °C | Cc1cc(C(c2ccc(-c3ccc(-c4ccc(C(c5cc(C)c(O)cc5C)c5cc(C)c(O)cc5C)cc4)cc3)cc2)c2cc(C)c(O)cc2C)c(C)cc1O [Compound 107] | A (rated A when meeting (glass transition temperature)−(crystallization temperature)≧70° C.) |  |  |

The remaining lines, values behind:

| SMILES | Glass transition temperature Rating [1] | Glass transition temperature [1] | Glass transition temperature-Crystallization temperature [1] | Crystallization temperature [1] | Solubility to safety solvent [2] |
| --- | --- | --- | --- | --- | --- |
| CC(C)(C)OC(=O)Oc1ccc(C(C)(C)c2ccc(OC(=O)OC(C)(C)C)cc2)cc1 [Compound 201, reference compound] |  |  |  |  | C (rated C when dissolved only in a concentration of less than 0.1 wt %) |
| CC(C)(C)OC(=O)Oc1ccc(C2(c3ccc(OC(=O)OC(C)(C)C)cc3)CCCCC2)cc1 [Compound 202, reference compound] |  |  |  |  | C (rated C when dissolved only in a concentration of less than 0.1 wt %) |
| Cc1cc(C(C)(c2ccc(O)c(C)c2)c2ccc3ccccc3c2)ccc1O [Compound 206, 1-(2-naphthyl)-1,1-bis(3-methyl-4-hydroxyphenyl)ethane, reference compound] | C (rated C when meeting Tg≦130° C.) | 72 °C | A (rated A when meeting (glass transition temperature)−(crystallization temperature)≧70° C.) |  |  |
| Oc1ccc(C2(c3ccc(O)cc3)c3ccccc3-c3ccccc32)cc1 [Compound 209, bisphenol fluorene, reference compound] | C (rated C when meeting Tg≦130° C.) | 101 °C | C (rated C when meeting (glass transition temperature)-(crystallization temperature)<70° C.) | 157.7 °C |  |

Reference: patent publication US8802353B2, “Compound for resist and radiation-sensitive composition specification” (Mitsubishi Gas Chemical Company, Inc., priority 2004, dated 2014)
